Laboratory results from US20100130737A1, “Regulating Agent of GPR34 Receptor Function” (TAKEDA PHARMACEUTICAL COMPANY LIMITED, priority 2005, published 2010).

Row | SMILES | melting point
1 | O=C(O)CCNC(=O)C1(NC(=O)Cc2ccc(OCc3ccc(F)cc3)cc2)Cc2ccc(-c3ccc(Cl)cc3)cc2C1 (stereo not shown) [Example B150, N-({5-(4-Chlorophenyl)-2-[({4-[(4-fluorobenzyl)oxy]phenyl}acetyl)amino]-2,3-dihydro-1H-inden-2-yl)carbonyl)-O-alanine] | 214 °C
2 | O=C(Cc1ccc(OCc2cccs2)cc1)NC1(C(=O)O)Cc2ccc(-c3ccc(Cl)cc3)cc2C1 (stereo not shown) [Example B151, 5-(4-Chlorophenyl)-2-({[4-(2-thienylmethoxy)phenyl]acetyl}amino)indan-2-carboxylic acid] | 201 °C
3 | Cc1nc(COc2ccc(CC(=O)NC3(C(=O)O)Cc4ccc(-c5ccc(Cl)cc5)cc4C3)cc2)cs1 (stereo not shown) [Example B152] | 209 to 210 °C
4 | Cc1nc(COc2ccc(CC(=O)NC3(C(=O)O)Cc4ccc(-c5ccc(Cl)cc5)cc4C3)cc2)co1 (stereo not shown) [Example B156, 5-(4-Chlorophenyl)-2-[({4-[(2-methyl-1,3-oxazol-4-yl)methoxy]phenyl}acetyl)amino]indan-2-carboxylic acid] | 187 to 189 °C
5 | Cc1cccc(C)c1-c1ccc2c(c1)CC(NC(=O)Cc1ccc(OCc3ccc(F)cc3)cc1)(C(=O)O)C2 (stereo not shown) [Example B160, 5-(2,6-Dimethylphenyl)-2-[({4-[(4-fluorobenzyl)oxy]phenyl}acetyl)amino]indan-2-carboxylic acid] | 210 to 212 °C
6 | O=C(Cc1ccc(Oc2ccc(F)cc2)cc1)NC1(C(=O)O)Cc2ccc(-c3ccc(Cl)cc3)cc2C1 (stereo not shown) [Example B161, 5-(4-Chlorophenyl)-2-({[4-(4-fluorophenoxy)phenyl]acetyl}amino)indan-2-carboxylic acid] | 232 to 234 °C
7 | O=C(Cc1ccc(NCc2ccc(F)cc2)cc1)NC1(C(=O)O)Cc2ccc(-c3ccc(Cl)cc3)cc2C1 (stereo not shown) [Example B162, 5-(4-Chlorophenyl)-2-[({4-[(4-fluorobenzyl)amino]phenyl}acetyl)amino]indan-2-carboxylic acid] | 188 to 190 °C
8 | O=C(Cc1ccc(OCc2ccncc2)cc1)NC1(C(=O)O)Cc2ccc(-c3ccc(Cl)cc3)cc2C1 (stereo not shown) [Example B163, 5-(4-Chlorophenyl)-2-({[4-(pyridin-4-ylmethoxy)phenyl]acetyl}amino)indan-2-carboxylic acid] | 128 °C
9 | O=C(Cc1ccc(Oc2ccsc2)cc1)NC1(C(=O)O)Cc2ccc(-c3ccc(Cl)cc3)cc2C1 (stereo not shown) [Example B164, 5-(4-Chlorophenyl)-2-({[4-(3-thienyloxy)phenyl]acetyl}amino)indan-2-carboxylic acid] | 226 to 228 °C
10 | Cc1noc(C)c1COc1ccc(CC(=O)NC2(C(=O)O)Cc3ccc(-c4ccc(Cl)cc4)cc3C2)cc1 (stereo not shown) [Example B165] | 200 to 201 °C
11 | O=C(CC1CCN(C(=O)c2ccc(F)cc2)CC1)NC1(C(=O)O)Cc2ccc(-c3ccc(Cl)cc3)cc2C1 (stereo not shown) [Example B166, 5-(4-Chlorophenyl)-2-({[1-(4-fluorobenzoyl)piperidin-4-yl]acetyl}amino)indan-2-carboxylic acid] | 242 °C
12 | O=C(CC1CCN(C(=O)Cc2ccc(F)cc2)CC1)NC1(C(=O)O)Cc2ccc(-c3ccc(Cl)cc3)cc2C1 (stereo not shown) [Example B167, 5-(4-Chlorophenyl)-2-[({1-[(4-fluorophenyl)acetyl]piperidin-4-yl}acetyl)amino]indan-2-carboxylic acid] | 196 °C
13 | O=C(CCCSc1nc2ccccc2s1)NC1(C(=O)O)Cc2ccc(-c3ccc(Cl)cc3)cc2C1 (stereo not shown) [Example B168, 2-{[4-(1,3-Benzothiazol-2-ylthio)-butanoyl]amino}-5-(4-chlorophenyl)indan-2-carboxylic acid] | 210 to 212 °C
14 | O=C(CCCSc1ccc2ccccc2c1)NC1(C(=O)O)Cc2ccc(-c3ccc(Cl)cc3)cc2C1 (stereo not shown) [Example B170, 5-(4-Chlorophenyl)-2-{[4-(2-naphthylthio)butanoyl]amino}indan-2-carboxylic acid] | 210 to 212 °C
15 | O=C(Cc1c[nH]c2ccccc12)NC1(C(=O)O)Cc2ccc(-c3ccc(Cl)cc3)cc2C1 (stereo not shown) [Example B176] | 209 to 211 °C
16 | O=C(Cc1ccccn1)NC1(C(=O)O)Cc2ccc(-c3ccc(Cl)cc3)cc2C1 (stereo not shown) [Example B178, 5-(4-Chlorophenyl)-2-[(pyridin-2-ylacetyl)amino]indan-2-carboxylic acid] | 189 °C
17 | O=C(NC1(C(=O)O)Cc2ccc(-c3ccc(Cl)cc3)cc2C1)[C@@H](O)c1ccccc1 (stereo partly drawn) [Example B179, 5-(4-Chlorophenyl)-2-{[(2S)-2-hydroxy-2-phenylacetyl]amino}indan-2-carboxylic acid] | 156 °C
18 | O=C(Nc1ccc(F)cc1)NC1(C(=O)O)Cc2ccc(-c3ccc(Cl)cc3)cc2C1 (stereo not shown) [Example B180, 5-(4-Chlorophenyl)-2-({[(4-fluorophenyl)amino]carbonyl}amino)indan-2-carboxylic acid] | 177 °C
19 | O=C(Cc1cccc(OCc2ccccc2)c1)NC1(C(=O)O)Cc2ccc(-c3ccc(Cl)cc3)cc2C1 (stereo not shown) [Example B181, 2-({[3-(Benzyloxy)phenyl]acetyl}amino)-5-(4-chlorophenyl)indan-2-carboxylic acid] | 207 °C
20 | O=C(Cc1ccc(OCc2ccc(F)cc2)cc1)NC1(C(=O)O)Cc2ccc(-c3ccccc3Cl)cc2C1 (stereo not shown) [Example B184, 5-(2-Chlorophenyl)-2-[({4-[(4-fluorobenzyl)oxy]phenyl}acetyl}amino}indan-2-carboxylic acid] | 213 to 215 °C
21 | O=C(Cc1ccc(OCc2ccc(F)cc2)cc1)NC1(C(=O)O)Cc2ccc(-c3cccc(Cl)c3)cc2C1 (stereo not shown) [Example B185, 5-(3-Chlorophenyl)-2-[({4-[(4-fluorobenzyl)oxy]phenyl}acetyl)amino]indan-2-carboxylic acid] | 173 to 174 °C
22 | O=C(Cc1ccc(OCc2ccc(F)cc2)cc1)NC1(C(=O)O)Cc2ccc(-c3ccc(Cl)s3)cc2C1 (stereo not shown) [Example B186, 5-(5-Chloro-2-thienyl)-2-[({4-[(4-fluorobenzyl)oxy]phenyl}acetyl)amino]indan-2-carboxylic acid] | 214 to 216 °C
23 | CC(C)(C)OC(=O)c1cccc(COc2ccc(CC(=O)NC3(C(=O)O)Cc4ccc(-c5ccc(Cl)cc5)cc4C3)cc2)c1 (stereo not shown) [Example B187, 2-{[(4-{[3-(tert-Butoxycarbonyl)benzyl]oxy}phenyl)acetyl]amino}-5-(4-chlorophenyl)indan-2-carboxylic acid] | 177 to 179 °C
24 | CC(C)(C)OC(=O)c1ccccc1COc1ccc(CC(=O)NC2(C(=O)O)Cc3ccc(-c4ccc(Cl)cc4)cc3C2)cc1 (stereo not shown) [Example B189, 2-{[(4-{[2-(tert-Butoxycarbonyl)benzyl]oxy}phenyl)acetyl]amino}-5-(4-chlorophenyl)indan-2-carboxylic acid] | 170 to 171 °C

Now from value to molecule:

Row | melting point | SMILES
25 | 204 to 205 °C | O=C(Cc1ccc(OCc2c(Cl)cccc2Cl)cc1)NC1(C(=O)O)Cc2ccc(-c3ccc(Cl)cc3)cc2C1 (stereo not shown) [Example B153]
26 | 194 to 195 °C | O=C(Cc1ccc(OC2CCc3ccccc32)cc1)NC1(C(=O)O)Cc2ccc(-c3ccc(Cl)cc3)cc2C1 (stereo not shown) [Example B154, 5-(4-Chlorophenyl)-2-({[4-(2,3-dihydro-1H-inden-1-yloxy)phenyl]acetyl)amino)indan-2-carboxylic acid]
27 | 233 to 234 °C | O=C(Cc1ccc(OC2Cc3ccccc3C2)cc1)NC1(C(=O)O)Cc2ccc(-c3ccc(Cl)cc3)cc2C1 (stereo not shown) [Example B155, 5-(4-Chlorophenyl)-2-({[4-(2,3-dihydro-1H-inden-2-yloxy)phenyl]acetyl}amino)indan-2-carboxylic acid]
28 | 258 to 259 °C | Cc1nc2ccccc2n1Cc1ccc(C(=O)NC2(C(=O)O)Cc3ccc(-c4ccc(Cl)cc4)cc3C2)cc1 (stereo not shown) [Example B157, 5-(4-Chlorophenyl)-2-({4-[(2-methyl-1H-benzimidazol-1-yl)methyl]benzoyl}amino)indan-2-carboxylic acid]
29 | 241 to 243 °C | O=C(Cc1ccc(Oc2nc3ccccc3s2)cc1)NC1(C(=O)O)Cc2ccc(-c3ccc(Cl)cc3)cc2C1 (stereo not shown) [Example B158, 2-({[4-(1,3-Benzothiazol-2-yloxy)phenyl]acetyl}amino)-5-(4-chlorophenyl)indan-2-carboxylic acid]
30 | 227 to 230 °C | O=C(CSc1nc2ccccc2o1)NC1(C(=O)O)Cc2ccc(-c3ccc(Cl)cc3)cc2C1 (stereo not shown) [Example B169, 2-{[(1,3-Benzoxazol-2-ylthio)acetyl]amino}-5-(4-chlorophenyl)indan-2-carboxylic acid]
31 | 223 to 225 °C | O=C(CSc1ccc2ccccc2c1)NC1(C(=O)O)Cc2ccc(-c3ccc(Cl)cc3)cc2C1 (stereo not shown) [Example B171, 5-(4-Chlorophenyl)-2-{[(2-naphthylthio)acetyl]amino)indan-2-carboxylic acid]
32 | 215 °C | O=C(CCSc1ccc2ccccc2c1)NC1(C(=O)O)Cc2ccc(-c3ccc(Cl)cc3)cc2C1 (stereo not shown) [Example B172, 5-(4-Chlorophenyl)-2-{[3-(2-naphthylthio)propanoyl]amino}indan-2-carboxylic acid]
33 | 231 to 233 °C | COc1ccc(CC(=O)NC2(C(=O)O)Cc3ccc(-c4ccc(Cl)cc4)cc3C2)cc1 (stereo not shown) [Example B173, 5-(4-Chlorophenyl)-2-{[(4-methoxyphenyl)acetyl]amino)indan-2-carboxylic acid]
34 | 240 to 243 °C | O=C(Cc1ccc(-c2ccccc2)cc1)NC1(C(=O)O)Cc2ccc(-c3ccc(Cl)cc3)cc2C1 (stereo not shown) [Example B177, 2-[(Biphenyl-4-ylacetyl)amino]-5-(4-chlorophenyl)indan-2-carboxylic acid]
35 | 227 to 228 °C | O=C(Cc1ccc(Oc2ccccc2)cc1)NC1(C(=O)O)Cc2ccc(-c3ccc(Cl)cc3)cc2C1 (stereo not shown) [Example B183, 5-(4-Chlorophenyl)-2-{[(4-phenoxyphenyl)acetyl]amino)indan-2-carboxylic acid]
36 | 220 to 222 °C | O=C(Cc1ccc(OCc2cccc(C(=O)O)c2)cc1)NC1(C(=O)O)Cc2ccc(-c3ccc(Cl)cc3)cc2C1 (stereo not shown) [Example B188, 2-[({4-[(3-Carboxybenzyl)oxy]phenyl}acetyl)amino]-5-(4-chlorophenyl)indan-2-carboxylic acid]
37 | 209 to 211 °C | O=C(Cc1ccc(OCc2ccccc2C(=O)O)cc1)NC1(C(=O)O)Cc2ccc(-c3ccc(Cl)cc3)cc2C1 (stereo not shown) [Example B190, 2-[({4-[(2-Carboxybenzyl)oxy]phenyl}acetyl)amino]-5-(4-chlorophenyl)indan-2-carboxylic acid]
